Measured values from patent US4128629A, “Extraction-free cortisol assay” (Corning Glass Works, priority 1977, dated 1978).
“And” between values parts separate entries of the source, which are not always exact repeats. Equal entries are not always repeated.

target: T1, transcortin (TC) (Homo sapiens, UniProt P08185); test: Cortisol released from serum sample (release from TC) by ANS and pH, compared with heat denaturation; conditions: typical patient serum samples; one value per patient sample; compared with heating at 100° C. for about 10 min
T1 sequence (P08185 23-405): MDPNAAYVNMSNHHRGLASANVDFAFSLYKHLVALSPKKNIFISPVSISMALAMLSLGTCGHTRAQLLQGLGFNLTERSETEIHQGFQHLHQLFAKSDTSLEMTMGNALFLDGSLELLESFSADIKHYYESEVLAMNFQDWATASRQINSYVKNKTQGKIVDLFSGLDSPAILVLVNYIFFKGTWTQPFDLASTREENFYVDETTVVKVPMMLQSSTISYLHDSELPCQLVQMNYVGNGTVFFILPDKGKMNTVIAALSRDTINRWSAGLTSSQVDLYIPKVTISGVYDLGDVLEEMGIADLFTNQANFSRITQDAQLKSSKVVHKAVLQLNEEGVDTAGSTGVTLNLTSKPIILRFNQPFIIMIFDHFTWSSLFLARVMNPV
Experimental: (§1) A lyophilized mixture of the tracer (about 50,000 DPM), 200 μg of ANS, and PBS is reconstituted to a 100 μl solution with water in an identified glass test tube to which is pipetted a […] serum sample having an unknown cortisol concentration. A non-interferring red dye such as Durkees Staff Brand may be included with the tracer solution to indicate that presence of the tracer.
Then, a 1 ml suspension of the immobilized antibodies (0.20 mg of anti-cortisol antibodies chemically coupled via N-hydroxysuccinimide linkage to silanized glass particles having an average particle size of about 1.7 microns is pipetted into the tube. The tube is vortexed for 2 or 3 seconds, allowing the composite of immobilized antibodies to be suspended. The reaction tube is incubated for about 1 hour at room temperature. The tube is then centrifuged for about 10 minutes at about 1400 to 1600 gravities (g). The relatively high density of the glass support facilitates this separation step. After centrifugation, the supernatant fluid is decanted and it or the composite at the bottom of the tube is counted for radioactivity. […]

Row | SMILES | Cortisol Released
1 | O=S(=O)(O)c1cccc2cccc(Nc3ccccc3)c12 [ANS, 8-anilino-1-naphthalene sulfonic acid] | 59 ng/mL and 90 ng/mL and 270 ng/mL and 465 ng/mL

test system: anticortisol antibody composite; test: Cross-reactivity (specificity) of the solid phase cortisol radioimmunoassay; format: binding; parameters: key: ratio of cortisol to cross-reactant amount at 50% displacement; conditions: ratio of the cortisol level to the steroid level at fifty percent relative displacement of labeled cortisol from immobilized anti-cortisol antibody
Experimental: as §1
Then, a 1 ml suspension of the immobilized antibodies (0.20 mg of anti-cortisol antibodies chemically coupled via N-hydroxysuccinimide linkage to silanized glass particles having an average particle size of about 1.7 microns is pipetted into the tube. The tube is vortexed for 2 or 3 seconds, allowing the composite of immobilized antibodies to be suspended. The reaction tube is incubated for about 1 hour at room temperature. The tube is then centrifuged for about 10 minutes at about 1400 to 1600 gravities (g). The relatively high density of the glass support facilitates this separation step. After centrifugation, the supernatant fluid is decanted and it or the composite at the bottom of the tube is counted for radioactivity. Since the amount of radioactivity in disintegrations per minute (DPM) of the initial tracer was known, the amount associated with the composite (that which competed with the unknown cortisol for sites on the composite), provides an indication of the cortisol present, using known correlation techniques.
The cross-reactivity of the anticortisol antibody composite for a substance may be expressed as the ratio of the amount of cortisol required to displace 50% of the labeled antigen from the antibody, to the amount of cross-reacting substance needed to cause a similar displacement.

Row | SMILES | Ratio of Cross Reactivity
2 | C[C@]12CCC(=O)C[C@@H]1CC[C@@H]1[C@@H]2CC[C@]2(C)[C@@H](O)CC[C@@H]12 [5α-Dihydrotestosterone] | 0.007
3 | C[C@]12CC[C@H]3[C@@H](CCC4=CC(=O)CC[C@@]43C)[C@@H]1CC[C@@H]2C(=O)CO [11-Desoxycorticosterone] | 0.10
4 | C[C@]12CCC(=O)C=C1CC[C@@H]1[C@@H]2CC[C@@]2(C)[C@H]1CC[C@]2(O)C(=O)CO [11-Desoxycortisol] | 0.11
5 | CC(=O)[C@@]1(O)CC[C@H]2[C@@H]3CCC4=CC(=O)CC[C@]4(C)[C@H]3CC[C@@]21C [17α-Hydroxyprogesterone] | 0.026
6 | C[C@@H](O)[C@H]1CC[C@H]2[C@@H]3CCC4=CC(=O)CC[C@]4(C)[C@H]3CC[C@]12C [20β-Hydroxyprogesterone] | 0.026
7 | C[C@]12CCC(=O)C=C1CC[C@@H]1[C@@H]2CC[C@]2(C)C(=O)CC[C@@H]12 [Androstenedione] | < 0.004
8 | CC(C)CCC[C@@H](C)[C@H]1CC[C@H]2[C@@H]3CC=C4C[C@@H](O)CC[C@]4(C)[C@H]3CC[C@]12C [Cholesterol] | < 0.001
9 | C[C@]12C[C@H](O)[C@H]3[C@@H](CCC4=CC(=O)CC[C@@]43C)[C@@H]1CC[C@@H]2C(=O)CO [Corticosterone] | 0.12
10 | C[C@]12CCC(=O)C=C1CC[C@@H]1[C@@H]2[C@@H](O)C[C@@]2(C)[C@H]1CC[C@]2(O)C(=O)CO [Cortisol] | 1.00
11 | C[C@]12CCC(=O)C=C1CC[C@@H]1[C@@H]2C(=O)C[C@@]2(C)[C@H]1CC[C@]2(O)C(=O)CO [Cortisone] | 0.008
12 | C[C@]12CC[C@@H]3c4ccc(O)cc4CC[C@H]3[C@@H]1CC[C@@H]2O [Estradiol-17β] | < 0.001
13 | C[C@]12CC[C@@H]3c4ccc(O)cc4CC[C@H]3[C@@H]1C[C@@H](O)[C@@H]2O [Estriol] | < 0.001
14 | C[C@]12CC[C@@H]3c4ccc(O)cc4CC[C@H]3[C@@H]1CCC2=O [Estrone] | < 0.001
15 | C[C@]12C=CC(=O)C=C1CC[C@@H]1[C@@H]2[C@@H](O)C[C@@]2(C)[C@H]1CC[C@]2(O)C(=O)CO [Prednisolone] | 0.10
16 | C[C@]12C=CC(=O)C=C1CC[C@@H]1[C@@H]2C(=O)C[C@@]2(C)[C@H]1CC[C@]2(O)C(=O)CO [Prednisone] | 0.004
17 | CC(=O)[C@H]1CC[C@H]2[C@@H]3CCC4=CC(=O)CC[C@]4(C)[C@H]3CC[C@]12C [Progesterone] | 0.041
18 | C[C@]12CC[C@H]3[C@@H](CCC4=CC(=O)CC[C@@]43C)[C@@H]1CC[C@@H]2O [Testosterone] | 0.002
19 | C[C@]12CC[C@@H](O)C[C@H]1CC[C@@H]1[C@@H]2[C@@H](O)C[C@@]2(C)[C@H]1CC[C@]2(O)C(=O)CO [Tetrahydrocortisol] | < 0.001
